# According to patent US20220257775A1 (GLYCOMIMETICS, INC., priority 2019, published 2022):
# Entries after “also recorded” stand apart in the source; their conditions may differ.
# Columns and labels:
# [1] = test system: TNFα-treated nude mice infused with human sickle RBCs; experiment: Sickle cell vaso-occlusion, intravital microscopy and adhesion in nude mouse model; assay type: in vivo, Nude (nu−/nu−) mice
# Procedure: In vivo treatment: Mice were divided into 3 groups. All mice were first injected I.P. with 500 ng TNFα to induce inflammation, activate the endothelium, and allow adhesion of murine leukocytes. After 2 hours, and once the endothelium is activated and murine leukocytes have already adhered, mice were infused with 200 μl of DIL (rhodamine)-labeled human sickle RBCs at 50% hematocrit (less than 10% murine blood volume assuming that blood volume for a 20 g weight mouse is 1.5 ml). We injected I.V. the three animal groups with the first dose of either Compound 45 at 20 μg/kg or 40 μg/kg, or saline (10 mL/kg) as vehicle immediately after infusion of human RBCs. The second dose was given 30 minutes later.
# Window chamber surgery: Surgery was performed before TNFα administration. General anesthesia was achieved by exposing nude mice to isoflurane. A double-sided titanium frame window chamber was surgically implanted into the dorsal skin fold under sterile conditions using a laminar flow hood. Surgery involved carefully removing the epidermal and dermal layers of one side of a dorsal skin fold, exposing the blood vessels of the subcutaneous tissue adjacent to the striated muscles of the opposing skin fold, and then securing the two sides of the chamber to the skin using stainless steel screws and sutures. A glass window was placed in the chamber to cover the exposed tissue and secured with a snap ring.
# Animal treatments, and fluorescence intravital microscopy: Anesthetized nude mice were first injected with 500 ng TNFα. After two hours, mice were infused with 200 μl DIL (rhodamine)-labeled human sickle RBCs at 50% hematocrit DIL through the dorsal tail vein.
# Immediately after human RBC injection, nude mice were then injected I.V. with the first dose of either Compound 45 at 20 μg/kg (n=4) or 40 μg/kg (n=3), or saline (10 mL/kg) as vehicle (n=5). Videos were recorded for 30 minutes at different locations within the dorsal skin-fold window chamber to accurately determine the effects of Compound 45 on human sickle cell adhesion to the vascular endothelium and adherent murine leukocytes, and vaso-occlusion in the nude mice. Thirty minutes later, the second dose of either Compound 45 at 20 μg/kg (n=4) or 40 μg/kg (n=3), or vehicle (n=5) was injected I.V., and intravital microscopy measurements of blood cell flow dynamics in post-capillary venules and arterioles were resumed for another 30 minutes on anesthetized nude mice. Videos were again recorded at different locations within the dorsal skin-fold window chamber to accurately determine the effects of the second dose of Compound 45 on blood cell adhesion to the vascular endothelium, and vaso-occlusion. Videos were produced using 10× and 20× magnifications.
# Cell adhesion was quantified on still images by measuring the fluorescence intensity [fluorescence unit (FU)] of adherent fluorescence-labeled human sickle cells using ImageJ software downloaded from the NIH website. Blood flow was also determined by counting the number of vessels with normal blood flow, slow blood flow, and no blood flow by frame-by-frame analysis of video replay. The values were averaged among groups of animals (n=5 for vehicle, n=4 for 40 μg/kg total Compound 45, and n=3 for 80 μg/kg total Compound 45) for non-blinded statistical analysis.
# (§1) Method of Analysis: Human sickle RBC adhesion is presented as FU, blood flow as % normal blood flow, % slow blood flow and % no blood flow (or occluded vessels), and circulating human sickle RBCs as number of circulating sickle RBCs.
# [2] = test system: TNFα-treated HbSS-Townes mice; experiment: Sickle cell vaso-occlusion, intravital microscopy and adhesion in Townes mouse model; assay type: in vivo
# Procedure: In vivo treatment: Townes mice were divided into 3 groups. All mice were first injected I.V. with PE-anti-mouse TER-119 antibody (10 μg/g BW) to label RBCs. Thirty minutes later, animals are injected with 500 ng TNFα I.P. to induce vaso-occlusion. After 90 minutes, and after onset of vaso-occlusion, sickle mice were treated I.V. with the first dose of either Compound 45 at 20 μg/kg or 40 μg/kg, or saline (10 mL/kg) as vehicle. The second dose was given 30 minutes later.
# Window chamber surgery: For Townes mice experiments, surgery is carried out under sterile conditions with aseptic technique. Since these mice do have hair, it is necessary to shave and use hair removal cream on the back of the anesthetized mouse prior to cleaning the back of the animals, and performing surgery. Experimental studies are performed immediately after surgery, because in our experience, window chambers are not usable a few days after surgery. The skin is very dry, and blood cells cannot be visualized under the microscopy. In addition, sickle mice have been reported to have a mild inflammatory response to the dorsal skin-fold window chamber implantation, evidenced by elevated levels of serum amyloid P component (SAP) 3 days after surgery.
# Intravital microscopy: Anesthetized animals with window chambers were placed on the stage of an Axoplan microscope (Carl Zeiss, Thornwood, N.Y.) and temperature maintained at 37° C. using a thermostatically controlled heating pad. […] Microcirculatory events and cell adhesion were simultaneously recorded using a computer connected to a digital video camera C2400 (Hamamatsu Photonics K.K., Japan). Visible venules were examined for each set of conditions. Arterioles were distinguished from venules based on: 1) observation of divergent flow as opposed to convergent flow; 2) birefringent appearance of vessel walls using transillumination, which is characteristic of arteriolar vascular smooth muscle; and 3) relatively straight vessel trajectory without evidence of tortuosity.
# Data Analysis and Statistics were conducted as described above for the nude mouse model.
# [3] = test system: TNFα-treated nude mice infused with human sickle RBCs; experiment: Flow cytometry analysis of circulating human sickle RBCs in nude mice; assay type: in vivo, Nude (nu−/nu−) mice
# Procedure: Flow cytometry analysis of circulating human sickle RBCs: Following intravital microscopy, blood samples were collected from nude mice treated with vehicle (n=3), 40 μg/kg total Compound 45 (n=3), and 80 μg/kg total Compound 45 (n=2), through cardiac puncture into EDTA tubes to determine the number of circulating human sickle RBCs by flow cytometry.
# as §1
# [4] = biological target: T1, recombinant human E-selectin/CD63E Fc Chimera (Homo sapiens, UniProt P16581); experiment: E-Selectin Activity - Analysis by SPR; assay type: binding; details: Biacore X100, E-selectin captured on anti-human IgG (Fc) chip
# T1 construct: Fc (human IgG Fc fusion partner); purchased R & D systems
# T1 sequence (P16581 with tags, fused parts or gaps limits assumed): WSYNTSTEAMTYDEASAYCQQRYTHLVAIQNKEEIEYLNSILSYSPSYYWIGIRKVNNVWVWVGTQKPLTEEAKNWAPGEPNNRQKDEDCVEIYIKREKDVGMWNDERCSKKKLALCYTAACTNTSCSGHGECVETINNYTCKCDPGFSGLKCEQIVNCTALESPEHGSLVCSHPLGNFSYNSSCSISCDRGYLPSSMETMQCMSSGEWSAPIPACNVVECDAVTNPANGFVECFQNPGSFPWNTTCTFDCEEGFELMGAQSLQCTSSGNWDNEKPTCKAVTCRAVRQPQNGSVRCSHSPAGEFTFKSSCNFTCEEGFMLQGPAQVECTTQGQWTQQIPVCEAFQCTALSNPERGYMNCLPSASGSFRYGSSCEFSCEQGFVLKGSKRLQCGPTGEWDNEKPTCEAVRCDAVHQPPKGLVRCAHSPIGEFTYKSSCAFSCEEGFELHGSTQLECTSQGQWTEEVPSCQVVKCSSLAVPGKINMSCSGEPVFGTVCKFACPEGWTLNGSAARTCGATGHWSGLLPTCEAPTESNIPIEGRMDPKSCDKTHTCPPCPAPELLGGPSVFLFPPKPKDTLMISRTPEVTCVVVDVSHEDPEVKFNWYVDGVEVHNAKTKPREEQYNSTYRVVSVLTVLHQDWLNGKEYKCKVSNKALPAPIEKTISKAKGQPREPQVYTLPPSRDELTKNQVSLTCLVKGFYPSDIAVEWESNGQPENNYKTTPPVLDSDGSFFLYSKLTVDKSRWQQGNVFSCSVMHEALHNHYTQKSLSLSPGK
# Procedure: Surface Plasmon Resonance (SPR) measurements were performed on a Biacore X100 instrument (GE Healthcare). A CM5 sensor chip (GE Healthcare) was used for the interaction between E-selectin and GMI compound. Anti-human IgG (Fc) antibody (GE Healthcare) was immobilized onto the chip by amine coupling according to the manufacturer's instructions. In brief, after a 7-min injection (flow rate of 5 μl/min) of 1:1 mixture of N-ethyl-N′-(3-dimethylaminopropyl) carbodiimide hydrochloride and N-hydroxysuccinimide, anti-human IgG (Fc) antibody (25 μg/ml in 10 mM sodium acetate buffer, pH 5.0) was injected using a 6-min injection at 5 μl/min. Remaining activated groups were blocked by injecting 1 M ethanolamine/HCl, pH 8.5. The recombinant human E-selectin/CD63E Fc Chimera (50 μg/ml) (R & D systems) was injected into the experimental cell until 6000-7000 RU was captured onto the antibody surface. No recombinant human E-selectin/CD63E was injected into the control cell. Increasing concentrations of GMI compound samples were injected at 30 μl/min into both flow cells and all sensorgrams were recorded against the control. Regeneration of the anti-human IgG (Fc) surface was achieved by injecting 3M magnesium chloride, followed by 50 mM sodium hydroxide. Data were analyzed using Biacore X100 evaluation/BIA evaluation 4.1.1 software (GE Healthcare) and Graphad prism 6 software.
# [5] = after second dose of 20 μg/kg I.V.
# [6] = after the first dose of 40 μg/kg I.V.
# [7] = after two doses of 40 μg/kg I.V.
smiles,measurement,setting,value
CC[C@H]1C[C@@H](C(=O)NCCNC(=O)NCCNC(=O)[C@@H]2C[C@H](CC)[C@@H](O[C@@H]3O[C@@H](C)[C@@H](O)[C@@H](O)[C@@H]3O)[C@H](O[C@@H]3O[C@H](CO)[C@H](O)[C@H](O[C@@H](CC4CCCCC4)C(=O)N4CCC4)[C@H]3NC(C)=O)C2)C[C@@H](O[C@@H]2O[C@H](CO)[C@H](O)[C@H](O[C@@H](CC3CCCCC3)C(=O)N3CCC3)[C@H]2NC(C)=O)[C@@H]1O[C@@H]1O[C@@H](C)[C@@H](O)[C@@H](O)[C@@H]1O [Compound 45],percentage of the total occluded vessel segments,[1]; [5],2%
same,total venules with slow blood flow,[1]; [5],16%
same,human SSRBC adhesion compared to vehicle,"[1]; after second dose of 20 μg/kg I.V. (40 μg/kg total), 30 min interval",significantly diminished
same,percentage of obstructed total vessels,[1]; [6],2%
same,vessels with slow blood flow,[1]; [6],12%
same,percentage of obstructed total vessels,[1]; [7],4%
same,vessels with slow blood flow,[1]; [7],8%
same,blood flow in inflamed vessels,[1]; dose not given,improves blood flow
same,human SSRBC adhesion after the inflammatory trigger of vaso-occlusion,[1]; dose not given,reduces human SSRBC adhesion
same,human SSRBC adhesion compared to vehicle,[1]; one dose of 20 μg/kg I.V.,failed to reduce SSRBC adhesion
same,human SSRBC adhesion,[1]; one dose of 40 μg/kg I.V.,marked anti-SSRBC adhesive activity
same,human SSRBC adhesion,"[1]; two doses of 40 μg/kg I.V. (80 μg/kg total), 30 min interval",marked anti-SSRBC adhesive activity; also recorded: effective in reducing cell adhesion in venules and vaso-occlusion and restoring blood flow
same,SSRBC adhesion after the inflammatory trigger of vaso-occlusion,[2]; dose not given,reduces SSRBC adhesion
same,blood flow in inflamed vessels,[2]; dose not given,improves blood flow
same,adhesion of the sickle cells,[2]; two 20 μg/kg doses I.V.,significantly diminished
same,reduction of the percentage of the total occluded vessel segments,[2]; two 20 μg/kg doses or two 40 μg/kg doses I.V.,80-90%
same,adhesion of the sickle cells,[2]; two 40 μg/kg doses I.V. (80 μg/kg total),significantly diminished; also recorded: effective in reducing sickle RBCs adhesion in venules and vaso-occlusion and restoring blood flow
same,number of circulating human SSRBCs compared to vehicle,[3]; two doses of 20 μg/kg I.V. at 30 min interval,increased significantly
same,number of circulating human SSRBCs compared to vehicle,[3]; two doses of 40 μg/kg I.V. at 30 min interval,increased significantly
same,Kd,[4],2.1 nM
